Results published in patent US20220008499A1, “COMPOUNDS, COMPOSITIONS AND METHODS FOR TREATING SEPSIS” (FERRING B.V., priority 2018, published 2022).
Bridge positions count the residues as written; N and C are the ends. Square brackets hold non-standard residues; d marks the D form. Peptide text beside a SMILES is read from it. Orn(iPr) = CC(C)NCCC[C@H](N)C(=O)O; Aad = N[C@@H](CCCC(=O)O)C(=O)O

Experiments:
[1] = system: patients with septic shock; details: cited from earlier work
[2] = system: patients with vasopressor-dependent sepsis and septic shock; test: randomized, placebo-controlled, adaptive clinical study of selepressin plus standard care; type: in vivo, human; design: Estimated 30-day mortality (up to day 30) / Estimated 30-day mortality, treatment difference vs placebo: concentration or dose not given beside the values; details: for improvement in estimated VFDs compared with placebo (more): up to day 30; for Est P&VFDs: all patients / Estimated Pressor and Ventilator Free days (P&VFDs): all patients: all doses pooled; for Est % mortality, treatment difference vs placebo / Est P&VFDs: all patients, treatment difference vs placebo / Est P&VFDs: survivors, treatment difference vs placebo / Estimated P&VFDs: all patients, treatment difference vs placebo / Estimated 30-day mortality, treatment difference vs placebo / Estimated P&VFDs: survivors only, treatment difference vs placebo: selepressin minus placebo; for Estimated Pressor and Ventilator Free days (P&VFDs): all patients: up to Day 30
Source text: The study described in the following examples was a randomized, placebo-controlled, seamless two-part, adaptive clinical study. […] The term “vasopressor-dependent sepsis” includes all patients with sepsis requiring vasopressor therapy. Septic shock includes patients with sepsis who require vasopressor therapy and who have a serum lactate concentration of ≥2 mmol/L.
The inclusion and exclusion criteria for the trial are set out below.
Inclusion Criteria • 18 years of age or older • Proven or suspected infection Septic shock defined as hypotension (systolic blood pressure less than 90 mm Hg or • Mean arterial pressure less than 65 mm Hg requiring vasopressor treatment (i.e., any dose of norepinephrine/noradrenaline base greater than […]) despite adequate fluid resuscitation (at least 1 litre for hypotension) • Informed consent obtained in accordance with local regulations
Exclusion Criteria • Unable to initiate treatment with selepressin or placebo within 12 h of onset of vasopressor treatment for septic shock • Primary cause of hypotension not due to sepsis • Previous severe sepsis with intensive care admission within this hospital stay • Known/suspected acute mesenteric ischemia • Suspicion of concomitant acute coronary syndrome based on clinical symptoms and/or electrocardiogram findings during this episode of septic shock • Chronic mechanical ventilation for any reason or severe chronic obstructive pulmonary disease (COPD) requiring either continuous daily oxygen use during the preceding 30 days or mechanical ventilation (for acute exacerbation of COPD) during the preceding 30 days • Received bone marrow transplant during the preceding 6 months or chemotherapy during the preceding 30 days for lymphoma or leukemia • Known to be pregnant Decision to limit full care taken before obtaining informed consent • Use of vasopressin in the past 12 hours before start of selepressin or placebo or use of terlipressin within 7 days of start of selepressin or placebo • Prior enrollment in the study • Prior use of an investigational medicinal product within the last month or planned or concurrent participation in a clinical trial for any investigational drug or investigational device
Additional Criteria that Must be Met at the Time of the Start of the Infusion of Selepressin or Placebo • Received a minimum of 30 ml/kg fluid in total from the onset of hypotension (not required if there is evidence of adequate fluid repletion or overload) • Received a continuous infusion of norepinephrine/noradrenaline base greater than […] for at least 1 h and is still receiving at least […] norepinephrine/noradrenaline base • Less than 12 h since onset of vasopressor treatment for septic shock
The targeted study population is a typical sample of patients presenting with vasopressor-dependent sepsis, defined by failing to respond to intravenous fluid replacement and requiring vasopressors for at least 1 hour, in whom treatment with selepressin or placebo could be initiated within 12 hours of the initiation of vasopressors.
The study drug was the continuous intravenous infusion of either the experimental agent or a matching placebo. In all instances, subjects received study infusion and standard care. The possible treatment arms were: Placebo; selepressin starting infusion rate 1.7 ng/kg/min to maximum 2.5 ng/kg/min; selepressin starting 2.5 ng/kg/min to maximum 3.75 ng/kg/min; selepressin starting 3.5 ng/kg/min to maximum 5.25 ng/kg/min; and selepressin starting 5.0 ng/kg/min to 7.5 ng/kg/min. […] This latter approach sought to wean all other vasoactive agents as soon as possible, and in a specified order, beginning with any open-label vasopressor other than norepinephrine, followed by norepinephrine, and finally the blinded study infusion. All patients received the study infusion until recovery from the need of vasopressor treatment or for 30 days, whichever came first. […]

[3] = target: human vasopressin V1a receptor (Homo sapiens, UniProt P37288); details: relative to the V1b, V2, and oxytocin receptors; cited from earlier work
[4] = system: other receptors, ion channels, or transporters; details: cited from earlier work
[5] = baseline serum lactate <2 mmol/L, n = 184
[6] = baseline serum lactate <2 mmol/L
[7] = baseline serum lactate ≥2 mmol/L, n = 340
[8] = baseline serum lactate ≥2 mmol/L

Sequence of human vasopressin V1a receptor (P37288 whole entry): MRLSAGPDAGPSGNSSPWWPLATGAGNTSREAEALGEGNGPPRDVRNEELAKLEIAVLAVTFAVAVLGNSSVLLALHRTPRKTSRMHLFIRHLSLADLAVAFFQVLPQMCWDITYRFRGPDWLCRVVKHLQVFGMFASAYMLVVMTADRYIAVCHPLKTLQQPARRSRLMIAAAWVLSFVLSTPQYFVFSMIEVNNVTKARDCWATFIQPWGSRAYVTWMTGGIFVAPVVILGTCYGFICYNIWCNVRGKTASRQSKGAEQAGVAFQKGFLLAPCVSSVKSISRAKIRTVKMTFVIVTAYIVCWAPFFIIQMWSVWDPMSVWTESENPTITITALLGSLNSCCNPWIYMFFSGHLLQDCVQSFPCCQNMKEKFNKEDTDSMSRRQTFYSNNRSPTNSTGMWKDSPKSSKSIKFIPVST

For NC(=O)CC[C@@H]1NC(=O)[C@H](Cc2ccccc2)NC(=O)[C@H](Cc2ccc(O)cc2)NC(=O)[C@@H](N)CSSC[C@@H](C(=O)N2CCC[C@H]2C(=O)N[C@@H](CCCN=C(N)N)C(=O)NCC(N)=O)NC(=O)[C@H](CC(N)=O)NC1=O [vasopressin], the “overall mortality compared with norepinephrine” value ([1]; all patients) is listed as “not different” and the “mortality compared with norepinephrine” value ([1]; patients requiring 5-14 ug/min of norepinephrine at enrollment) is listed as “decreased mortality”.

In the case of CC[C@H](C)[C@@H]1NC(=O)[C@H](Cc2ccccc2)NC(=O)[C@@H](N)CSSC[C@@H](C(=O)N2CCC[C@H]2C(=O)N[C@@H](CCCNC(C)C)C(=O)NCC(N)=O)NC(=O)[C@H](CC(N)=O)NC(=O)[C@H](CCCC(N)=O)NC1=O [Selepressin, selepressin] (H-CFI[Aad](NH2)NCP[Orn(iPr)]G-NH2; disulfide 1-6), the “mortality and patient outcomes (pressor and mechanical ventilator free days)” value ([2]; PaO2/FiO2 greater than about 200 prior to treatment) was “improved mortality and improved patient outcomes”, the “mortality and patient outcomes (P&VFDs)” value ([2]; administered within six hours from when the patient requires vasopressor therapy) was “improved mortality and improved patient outcomes” and the “improvement in estimated VFDs compared with placebo (more)” value ([2]; baseline PaO2/FiO2 200-300 mmHg, FIG. 1) was 2.1. The “outcomes (VFDs) compared with placebo” value ([2]; baseline PaO2/FiO2 <100 mmHg, FIG. 1) was “slightly worse”, the “improvement in estimated VFDs compared with placebo (more)” value ([2]; baseline PaO2/FiO2 ≥300 mmHg, FIG. 1) was 4.8 and the Est % mortality [2, 5] was 21.39%. The “Est P&VFDs: all patients” value [2, 5] was 17.53, the “Est % mortality, treatment difference vs placebo” value [2, 6] was −6.32% and the “Est P&VFDs: all patients, treatment difference vs placebo” value [2, 6] was 2.34. The “Est P&VFDs: survivors” value [2, 6] was 22.30, the “Est P&VFDs: survivors, treatment difference vs placebo” value [2, 6] was 1.29 and the Est % mortality [2, 7] was 40.04%. For the same molecule, the “Est P&VFDs: all patients” value [2, 7] was 13.87, the “Est % mortality, treatment difference vs placebo” value [2, 8] was 3.96% and the “Est P&VFDs: all patients, treatment difference vs placebo” value [2, 8] was −0.67. For the same molecule, the “Est P&VFDs: survivors” value [2, 8] was 23.14, the “Est P&VFDs: survivors, treatment difference vs placebo” value [2, 8] was 0.38 and the “improvement in mortality compared with placebo (less)” value ([2]; serum lactate <2 mmol/L at baseline) was 6.32%. For the same molecule, the “mortality and patient outcomes (P&VFDs)” value ([2]; serum lactate less than about 2 mmol/L prior to treatment) was “improved mortality and improved patient outcomes”, the “Estimated Pressor and Ventilator Free days (P&VFDs): all patients” value ([2]; treatment <6 hours from when patient required vasopressor, n = 147) was 14.56 days and the “Estimated P&VFDs: all patients, treatment difference vs placebo” value ([2]; treatment <6 hours from when patient required vasopressor) was 2.08 days. The “Estimated 30-day mortality (up to day 30)” value ([2]; treatment <6 hours, n = 147) was 35.73%, the “Estimated 30-day mortality, treatment difference vs placebo” value ([2]; treatment <6 hours) was −6.57% and the “Estimated Pressor and Ventilated Free Days (P&VFDs): survivors only” value ([2]; treatment <6 hours) was 22.66 days. The “Estimated P&VFDs: survivors only, treatment difference vs placebo” value ([2]; treatment <6 hours) was 1.02 days, the “improvement in mortality compared with placebo (less)” value ([2]; treatment between zero and up to six hours from when patient required vasopressor) was 6.57% and the “Estimated 30-day mortality (up to day 30)” value ([2]; treatment ≥6 hours, n = 415) was 33.79%. For the same molecule, the “Estimated Pressor and Ventilator Free days (P&VFDs): all patients” value ([2]; treatment ≥6 hours, n = 415) was 15.59 days, the “Estimated 30-day mortality, treatment difference vs placebo” value ([2]; treatment ≥6 hours) was 2.91% and the “Estimated P&VFDs: all patients, treatment difference vs placebo” value ([2]; treatment ≥6 hours) was -0.05 days. For the same molecule, the “Estimated Pressor and Ventilated Free Days (P&VFDs): survivors only” value ([2]; treatment ≥6 hours) was 23.55 days, the “Estimated P&VFDs: survivors only, treatment difference vs placebo” value ([2]; treatment ≥6 hours) was 0.92 days and the “affinity and selectivity for V1a receptor” value [3] was “high affinity and selectivity”. The “affinity for other receptors, ion channels, or transporters” value [4] was “no known affinity”.
